Converted amounts (≈) assume the structure as drawn.
Tests used:
[1] = test system: Mycobacterium tuberculosis; test: Antimycobacterial activity against multidrug-resistant Mycobacterium tuberculosis CF104 clinical isolate incubated for 7 days measured 24 hrs post incubation by resazurin microtiter assay; assay type: functional
[2] = test system: Mycobacterium tuberculosis; test: Antimycobacterial activity against multidrug-resistant Mycobacterium tuberculosis CF81 clinical isolate incubated for 7 days measured 24 hrs post incubation by resazurin microtiter assay; assay type: functional

SMILES | MIC90 [1] | MIC90 [2]
CN1CCCCC1CCN1c2ccccc2Sc2ccc(Cl)cc21 (configuration not stated) | 16 µg/mL (≈ 44.6 µM) | 12 µg/mL (≈ 33.4 µM)
CN1CCCCC1CCn1c2ccccc2c2ccccc21 (configuration not stated) | 48 µg/mL (≈ 164 µM) | 46 µg/mL (≈ 157 µM)
c1ccc2c(c1)ccn2CCC1CCCCN1 (configuration not stated) | 10 µg/mL (≈ 43.8 µM) | 4 µg/mL (≈ 17.5 µM)
CSc1ccc2c(c1)N(CCCN1CCN(C)CC1)c1ccccc1S2 | 23 µg/mL (≈ 59.6 µM) | 33 µg/mL (≈ 85.6 µM)
CN1CCCCC1CCN1c2ccccc2Sc2ccccc21 (configuration not stated) | > 64 µg/mL | 58 µg/mL (≈ 179 µM)
c1ccc2c(c1)Sc1ccccc1N2CCC1CCCCN1 (configuration not stated) | > 64 µg/mL | 58 µg/mL (≈ 187 µM)
c1ccc2c(c1)ncn2CCC1CCCCN1 (configuration not stated) | > 100 µg/mL | > 100 µg/mL
CSc1ccc2c(c1)N(CCC1CCCCN1)c1ccccc1S2 (configuration not stated) | > 100 µg/mL | > 100 µg/mL
Clc1ccc2c(c1)N(CCC1CCCCN1)c1ccccc1S2 (configuration not stated) | 19 µg/mL (≈ 55.1 µM) | 11 µg/mL (≈ 31.9 µM)
CSc1ccc2c(c1)N(CCCN1CCN(C3C4CC5CC(C4)CC3C5)CC1)c1ccccc1S2 (configuration not stated) | 20 µg/mL (≈ 39.5 µM) | 48 µg/mL (≈ 94.9 µM)
CSc1ccc2c(c1)N(C(=O)CN1CCCCC1)c1ccccc1S2 | 72 µg/mL (≈ 194 µM) | > 100 µg/mL
CSc1ccc2c(c1)N(CCC1CCCCN1Cc1ccccc1)c1ccccc1S2 (configuration not stated) | 32 µg/mL (≈ 71.6 µM) | 44 µg/mL (≈ 98.5 µM)
NNC(=O)c1ccncc1 [ISONIAZID] | > 25 µg/mL | > 25 µg/mL
CN1CCN(CCCN2c3ccccc3Sc3ccccc32)CC1 [PERAZINE] | > 100 µg/mL | > 100 µg/mL
CO[C@H]1/C=C/O[C@@]2(C)Oc3c(C)c(O)c4c(O)c(c(/C=N/N5CCN(C)CC5)c(O)c4c3C2=O)NC(=O)/C(C)=C\C=C\[C@H](C)[C@H](O)[C@@H](C)[C@@H](O)[C@@H](C)[C@H](OC(C)=O)[C@@H]1C [RIFAMPIN] | > 25 µg/mL | > 25 µg/mL
CSc1ccc2c(c1)N(CCC1CCCCN1C)c1ccccc1S2 (configuration not stated) [THIORIDAZINE] | 11 µg/mL (≈ 29.7 µM) | 10 µg/mL (≈ 27 µM)
